According to the NIST ThermoML archive (doi:10.1021/je9000679):

Details: for surface tension liquid-gas: Maximal bubble pressure; for mass density: 101.33 kPa, Liquid

CCCCCC[n+]1ccccc1.[O]=[Re](=[O])(=[O])[O-] [1-hexylpyridinium perrhenate]
Details | mass density [kg/m3] | surface tension liquid-gas [mN/m]
293.15 K | 1794.6 | 34.4
298.15 K | 1787 | 34
303.15 K | 1779 | 33.6
308.15 K | 1771.3 | 33.2
313.15 K | 1765 | 33
318.15 K | 1759 | 32.6
323.15 K | 1751.4 | 32.3
328.15 K | 1743.9 | 32
333.15 K | 1738 | 31.8
338.15 K | 1732.3 | 31.5
343.15 K | 1726.9 | 31.1
